Source: patent US8445636B2, “Antimicrobial and anticancer lipopeptides” (Yeda Research & Development Co. Ltd., priority 2003, dated 2013)
In brackets after ≈: the same amount, converted by molar mass. Like-named read-outs stand apart in the source and are kept apart here.

What was measured:
Assay in all cases: microbe, parasite or virus in culture
Format in all cases: cell-based
[1] = test system: Candida albicans ATCC 10231; settings: Candida albicans, ATCC10231
Experimental: (§1) The antifungal activity of the lipopeptides was examined in sterile 96-well plates (Nunc F96 microtiter plates) in a final volume of 200 μL as follows: 100 µl of a suspension containing fungi at a concentration of 1×10^4 Colony-Forming Units (CFU)/ml in culture medium (RPMI 1640, 0.165 M MOPS with L-glutamine, without NaHCO3) at pH 7.4 or pH 5.5 (adjustment of the pH was done by diluted solutions of HCl and NaOH) were added to 100 μl of water containing the peptide in serial 2-fold dilutions in water. The fungi were incubated in the presence of the lipopeptides for 24-48 h at 35° C. in a Binder KB115 incubator under agitation. Growth inhibition was determined by measuring the absorbance at 620 nm with a Microplate autoreader E1309 (Bio-Tek Instruments). Antifungal activity is expressed as the minimal inhibitory concentration (MIC), the concentration at which 100% inhibition of fungi growth was observed after the incubation time mentioned above. The fungi used were: Aspergillus niger ATCC 9642, Candida albicans ATCC 10231 and Cryptococcus neoformans ATCC 66031. If not indicated otherwise, the fungi growth was detected at pH 7.4.

[2] = test system: Cryptococcus neoformans ATCC 66031; settings: Cryptococcus neoformans, ATCC66031
Experimental: as §1

[3] = test system: Aspergillus fumigatus ATCC 26430; settings: Aspergillus fumigatus, ATCC26430
[4] = test system: Cryptococcus neoformans ATCC MYA-422; settings: Cryptococcus neoformans; Table 9, short lipopeptides; pH 7.4; mean of 3 experiments, standard deviation of 25%; read-out: Minimal Inhibitory Concentration, Cyrptococcus neoformans (ATCC MYA-422)

`C[C@@H]1[C@H](O)[C@@H](C)/C=C/C=C/C=C/C=C/C=C/C=C/C=C/[C@H](O[C@@H]2O[C@H](C)[C@@H](O)[C@H](N)[C@@H]2O)C[C@@H]2O[C@](O)(C[C@@H](O)C[C@@H](O)[C@H](O)CC[C@@H](O)C[C@@H](O)CC(=O)O[C@H]1C)C[C@H](O)[C@H]2C(=O)O` [Amphotericin, reference compound] was tested, and the MIC ([1]; Table 9, short lipopeptides, pH 7.4, mean of 3 experiments, standard deviation of 25%, read-out: Minimal Inhibitory Concentration, Candida Albicans (ATCC 10231)) was 0.625 µM (≈ 0.578 µg/mL), the MIC ([1]; Table 12, with serum, pH 7.4, read-out: Minimal inhibitory concentrations, C. Albicans With serum) was 0.78 µM (≈ 0.721 µg/mL) and the MIC ([1]; Table 12, without serum, pH 7.4, read-out: Minimal inhibitory concentrations, C. Albicans Without serum) was 3.12 µM (≈ 2.89 µg/mL). The MIC ([1]; Table 13, pH 5.5, with serum, read-out: Minimal inhibitory concentrations, C. Albicans With serum) was 0.78 µM (≈ 0.721 µg/mL), the MIC ([1]; Table 13, pH 5.5, without serum, read-out: Minimal inhibitory concentrations, C. Albicans Without serum) was 9.38 µM (≈ 8.66 µg/mL) and the MIC ([2]; Table 12, with serum, pH 7.4, read-out: Minimal inhibitory concentrations, C. Neofor. With serum) was less than 0.78 µM. The MIC ([2]; Table 12, without serum, pH 7.4, read-out: Minimal inhibitory concentrations, C. Neofor. Without serum) was less than 0.78 µM, the MIC ([2]; Table 13, pH 5.5, with serum, read-out: Minimal inhibitory concentrations, C. Neofor. With serum) was less than 0.78 µM and the MIC ([2]; Table 13, pH 5.5, without serum, read-out: Minimal inhibitory concentrations, C. Neofor. Without serum) was 3.12 µM (≈ 2.89 µg/mL). For the same molecule, the MIC ([3]; Table 9, short lipopeptides, pH 7.4, mean of 3 experiments, standard deviation of 25%, read-out: Minimal Inhibitory Concentration, Aspergillus Fomigatus (ATCC 26430)) was 1.25 µM (≈ 1.16 µg/mL), the MIC ([3]; Table 12, with serum, pH 7.4, read-out: Minimal inhibitory concentrations, A. Fumig. With serum) was less than 0.78 µM and the MIC ([3]; Table 12, without serum, pH 7.4, read-out: Minimal inhibitory concentrations, A. Fumig. Without serum) was 2.34 µM (≈ 2.16 µg/mL). The MIC ([3]; Table 13, pH 5.5, with serum, read-out: Minimal inhibitory concentrations, A. Fumig. With serum) was less than 0.78 µM, the MIC ([3]; Table 13, pH 5.5, without serum, read-out: Minimal inhibitory concentrations, A. Fumig. Without serum) was 3.12 µM (≈ 2.89 µg/mL) and the MIC [4] was 0.312 µM (≈ 0.288 µg/mL).
